Measured values taken from US4948873A, “Gonadoliberine analogues of high activity” (Richter Gedeon Vegyeszeti Gyar, priority 1985, dated 1990).

Legend:
Format in all cases: in vivo
[1] = test system: rats; assay: Toxicity in rats, administration for 17 days; settings: 10 μg/rat for 17 days
Text: (§1) The toxicity data of Asu^6, desGly^10 -GnRH-ethylamide are as follows: […]

[2] = test system: LH hormone; assay: LH concentration in the serum of male mice after subcutaneous administration (radioimmunoassay); settings: dose 200 ng/mouse; for LH serum level in mice after the treatments, 2 hours: 2 hours after treatment; for LH serum level in mice after the treatments, 4 hours: 4 hours after treatment; for LH serum level in mice after the treatments, 6 hours: 6 hours after treatment
Description: The common feature of the superactive GnRH analogues is that they liberate many times the amount of LH hormone than the natural GnRH could do and the duration of their effect is also much longer. In order to illustrate the above statements the activity for liberating LH hormone of the natural GnRH analogues and some superactive and some representatives of the GnRH analogues of formula I according to the invention are shown in FIG. 1. The experiments were carried out on male mice, the active ingredient was administered subcutaneously and the LH content of the serum of the blood of the animals was measured by radioimmunoassay.
Table I summarizes the biological data of a preferable representative of the GnRH analogues of formula I, Asu^6 -desGly^10 -GnRH-ethylamide.

[3] = test system: sexually matured female rabbits; assay: Induction of ovulation in angora rabbit; settings: single dose of 1.5 μg/rabbit, thereafter artificially inseminated
Description: (d) Induction of ovulation in angora rabbit
The sexually matured female rabbits were administered with a single does of 1.5 μg/rabbit, thereafter artificially inseminated. 90% of the animals became pregnant.

[4] = test system: sexually mature female rats; assay: Inhibition of ovulation in rats; settings: 0.5 μg/rat for 17 days
Description: (c) Inhibition of ovulation in rats
The compound was administered for 17 days in a dose of 0.5 μg/rats to sexually mature female rats. The inhibition of ovulation was 100%. The experimental method is described in B.B.R.C. 118, 351 […] Kovacs et al.

[5] = test system: rats; assay: Toxicity in rats, single dose; settings: single dose of 10 mg/kg
Text: as §1

Substance | toxicity [1] | LH serum level in mice after the treatments, 2 hours [2] [ng/mL] | LH serum level in mice after the treatments, 4 hours [2] [ng/mL] | LH serum level in mice after the treatments, 6 hours [2] [ng/mL] | animals that became pregnant [3] [%] | inhibition of ovulation [4] [%] | toxicity [5]
Glp-His-Trp-Ser-Tyr-Asu-Leu-Arg-Pro-ethylamide [Asu^6,desGly^10 -GnRH-ethylamide] | atoxic | 958.4 | 702.3 | 216.2 | 90 | 100 | did not prove to be toxic
GnRh: native gonadoliberine peptide hormone of hypothalamic origin [reference compound] | – | 85.2 | 81.4 | 87.0 | – | – | –
